Data published in patent US5476874A, “New HIV protease inhibitors” (Merck & Co., Inc., priority 1994, dated 1995).

Molecular target: T1, HIV protease (Human immunodeficiency virus type 1 group M subtype B, UniProt P04585)
T1 construct: the protease expressed in Escherichia coli; made in house; host or cells: Escherichia coli
Test: Assay for Inhibition of Microbial Expressed HIV Protease
Type: biochemical
Conditions: protease expressed in Escherichia coli; peptide substrate Val-Ser-Gln-Asn-(betanaphthyl)Ala-Pro-Ile-Val; 50 mM Na acetate, pH 5.5, 30° C., 1 hour; HPLC readout
Description: Assay for Inhibition of Microbial Expressed HIV Protease
Inhibition studies of the reaction of the protease expressed in Escherichia coli with a peptide substrate [Val-Ser-Gln-Asn-(betanaphthyl)Ala-Pro-Ile-Val, 0.5 mg/mL at the time the reaction is initiated] were in 50 mM Na acetate, pH 5.5, at 30° C. for 1 hour. Various concentrations of inhibitor in 1.0 ul DMSO were added to 25 ul of the peptide solution in water. The reaction is initiated by the addition of 15 ul of 0.33 nM protease […] in a solution of 0.133 M Na acetate pH 5.5 and 0.26% bovine serum albumin. The reaction was quenched with 160 ul of 5% phosphoric acid. Products of the reaction were separated by HPLC (VYDAC wide pore 5 cm C-18 reverse phase, acetonitrile gradient, 0.1% phosphoric acid). The extent of inhibition of the reaction was determined from the peak heights of the products.

**Q.** Which IC50 does the source give for `CC(C)CN(CC(O)CC(Cc1ccccc1)C(=O)NC1c2ccccc2CC1O)C(=O)OCc1ccccc1` [Compound A, N-(2'(R)-hydroxy-1'(S)-indanyl)-2(R)-phenylmethyl-4(S)-hydroxy-5-[((2'''-methyl)propyl)-benzyloxycarbonyl]-amino-pentaneamide] here?
**A.** Its IC50 is 8 to 9 nM.
